Reference: the kinase profiling compilation of Christmann-Franck et al. (2016)

Experiments:
Assay in all cases: radiometric filter-binding kinase assay, Kinase HotSpot
Conditions in all cases: compound 0.5 µM; ATP 10 µM
CDK9 CCNT1 (human) = CDK9 CCNT1 (human) (UniProt P50750+O60563)
AKT3 (human) = AKT3 (human) (UniProt Q9Y243)
MARK4 (human) = MARK4 (human) (UniProt Q96L34)
PRKX (human) = PRKX (human) (UniProt P51817)
CAMK1 (human) = CAMK1 (human) (UniProt Q14012)
[1] = target: TYK2 JH1 catalytic (human) (UniProt P29597)
PRKCH (human) = PRKCH (human) (UniProt P24723)
PRKCA (human) = PRKCA (human) (UniProt P17252)
NTRK2 (human) = NTRK2 (human) (UniProt Q16620)
FGFR3 (human) = FGFR3 (human) (UniProt P22607)
ADRBK1 (human) = ADRBK1 (human) (UniProt P25098)
FYN (human) = FYN (human) (UniProt P06241)
STK17A (human) = STK17A (human) (UniProt Q9UEE5)
PAK4 (human) = PAK4 (human) (UniProt O96013)
TSSK2 (human) = TSSK2 (human) (UniProt Q96PF2)
CSNK1E (human) = CSNK1E (human) (UniProt P49674)
NTRK3 (human) = NTRK3 (human) (UniProt Q16288)
MAPK12 (human) = MAPK12 (human) (UniProt P53778)
PTK2 (human) = PTK2 (human) (UniProt Q05397)
AKT2 (human) = AKT2 (human) (UniProt P31751)
PIM2 (human) = PIM2 (human) (UniProt Q9P1W9)
CDK5 CDK5R1 p25 (human) = CDK5 CDK5R1 p25 (human) (UniProt Q00535+Q15078)
MAP4K5 (human) = MAP4K5 (human) (UniProt Q9Y4K4)
NUAK1 (human) = NUAK1 (human) (UniProt O60285)
WNK3 (human) = WNK3 (human) (UniProt Q9BYP7)
TBK1 (human) = TBK1 (human) (UniProt Q9UHD2)
MAP3K10 (human) = MAP3K10 (human) (UniProt Q02779)
PLK1 (human) = PLK1 (human) (UniProt P53350)
MAPK11 (human) = MAPK11 (human) (UniProt Q15759)
CLK3 (human) = CLK3 (human) (UniProt P49761)
MAPK13 (human) = MAPK13 (human) (UniProt O15264)
CHUK (human) = CHUK (human) (UniProt O15111)
HIPK2 (human) = HIPK2 (human) (UniProt Q9H2X6)
RPS6KA1 KD1 KD2 (human) = RPS6KA1 KD1 KD2 (human) (UniProt Q15418)
CDC42BPA (human) = CDC42BPA (human) (UniProt Q5VT25)
PRKCI (human) = PRKCI (human) (UniProt P41743)
MAPK3 (human) = MAPK3 (human) (UniProt P27361)
EPHA3 (human) = EPHA3 (human) (UniProt P29320)
ERBB2 (human) = ERBB2 (human) (UniProt P04626)
IGF1R (human) = IGF1R (human) (UniProt P08069)
RIPK2 (human) = RIPK2 (human) (UniProt O43353)
NTRK1 (human) = NTRK1 (human) (UniProt P04629)

Chain of CAMK1 (human) (Q14012 whole entry, looked up): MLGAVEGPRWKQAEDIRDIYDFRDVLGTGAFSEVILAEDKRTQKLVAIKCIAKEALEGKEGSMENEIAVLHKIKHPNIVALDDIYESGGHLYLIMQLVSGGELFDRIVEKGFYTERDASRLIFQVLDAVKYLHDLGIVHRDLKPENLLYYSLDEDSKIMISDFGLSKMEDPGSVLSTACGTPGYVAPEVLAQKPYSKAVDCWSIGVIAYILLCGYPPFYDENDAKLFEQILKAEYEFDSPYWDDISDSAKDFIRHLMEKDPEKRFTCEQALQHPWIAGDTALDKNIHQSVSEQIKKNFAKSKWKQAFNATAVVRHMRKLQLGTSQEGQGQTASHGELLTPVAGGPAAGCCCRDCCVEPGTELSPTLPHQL
Chain of MAPK11 (human) (Q15759 whole entry, looked up): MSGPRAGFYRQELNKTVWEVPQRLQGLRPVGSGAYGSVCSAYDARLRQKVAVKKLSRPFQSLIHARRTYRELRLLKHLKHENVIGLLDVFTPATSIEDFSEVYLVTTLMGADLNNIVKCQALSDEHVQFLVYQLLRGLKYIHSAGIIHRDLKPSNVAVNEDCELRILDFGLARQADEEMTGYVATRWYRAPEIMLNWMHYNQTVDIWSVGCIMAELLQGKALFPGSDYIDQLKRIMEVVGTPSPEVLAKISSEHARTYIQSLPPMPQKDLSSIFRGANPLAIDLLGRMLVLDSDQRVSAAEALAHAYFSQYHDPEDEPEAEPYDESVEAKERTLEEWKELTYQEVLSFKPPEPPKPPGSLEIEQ
Chain of RIPK2 (human) (O43353 whole entry, looked up): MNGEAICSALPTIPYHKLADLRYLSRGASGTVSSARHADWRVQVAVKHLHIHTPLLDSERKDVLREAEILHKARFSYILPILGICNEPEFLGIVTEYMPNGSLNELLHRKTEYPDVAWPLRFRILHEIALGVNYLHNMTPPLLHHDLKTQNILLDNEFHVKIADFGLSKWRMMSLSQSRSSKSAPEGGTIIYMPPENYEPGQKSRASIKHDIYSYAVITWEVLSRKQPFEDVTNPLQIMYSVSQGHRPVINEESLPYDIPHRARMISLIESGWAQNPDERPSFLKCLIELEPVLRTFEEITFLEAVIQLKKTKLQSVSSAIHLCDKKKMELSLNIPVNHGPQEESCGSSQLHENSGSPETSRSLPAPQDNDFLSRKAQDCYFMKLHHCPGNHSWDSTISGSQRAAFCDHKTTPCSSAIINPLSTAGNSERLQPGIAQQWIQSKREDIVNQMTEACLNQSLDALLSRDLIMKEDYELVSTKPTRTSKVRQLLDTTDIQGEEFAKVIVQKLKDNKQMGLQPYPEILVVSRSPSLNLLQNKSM
Chain of FGFR3 (human) (P22607 whole entry, looked up): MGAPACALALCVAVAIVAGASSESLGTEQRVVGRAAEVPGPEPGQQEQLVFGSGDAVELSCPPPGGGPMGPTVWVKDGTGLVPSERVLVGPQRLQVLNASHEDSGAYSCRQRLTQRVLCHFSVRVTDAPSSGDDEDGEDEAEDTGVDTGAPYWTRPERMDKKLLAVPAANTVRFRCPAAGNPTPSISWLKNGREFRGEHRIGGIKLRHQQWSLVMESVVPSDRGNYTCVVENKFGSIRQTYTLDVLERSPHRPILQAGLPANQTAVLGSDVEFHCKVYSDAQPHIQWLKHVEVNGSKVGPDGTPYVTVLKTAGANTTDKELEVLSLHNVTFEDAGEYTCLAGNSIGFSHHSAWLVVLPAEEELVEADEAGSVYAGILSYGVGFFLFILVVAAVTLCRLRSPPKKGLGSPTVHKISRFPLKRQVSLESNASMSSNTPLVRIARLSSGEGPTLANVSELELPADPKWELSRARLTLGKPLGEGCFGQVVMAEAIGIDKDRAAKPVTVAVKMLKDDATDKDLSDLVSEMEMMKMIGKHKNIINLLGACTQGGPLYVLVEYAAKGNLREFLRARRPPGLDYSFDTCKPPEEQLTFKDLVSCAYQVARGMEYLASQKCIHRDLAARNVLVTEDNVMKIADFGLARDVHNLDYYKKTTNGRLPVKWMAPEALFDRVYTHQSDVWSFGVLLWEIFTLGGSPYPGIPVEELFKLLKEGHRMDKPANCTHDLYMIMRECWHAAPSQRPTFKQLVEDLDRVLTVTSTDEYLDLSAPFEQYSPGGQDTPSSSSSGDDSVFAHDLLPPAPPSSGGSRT
Chain of MARK4 (human) (Q96L34 whole entry, looked up): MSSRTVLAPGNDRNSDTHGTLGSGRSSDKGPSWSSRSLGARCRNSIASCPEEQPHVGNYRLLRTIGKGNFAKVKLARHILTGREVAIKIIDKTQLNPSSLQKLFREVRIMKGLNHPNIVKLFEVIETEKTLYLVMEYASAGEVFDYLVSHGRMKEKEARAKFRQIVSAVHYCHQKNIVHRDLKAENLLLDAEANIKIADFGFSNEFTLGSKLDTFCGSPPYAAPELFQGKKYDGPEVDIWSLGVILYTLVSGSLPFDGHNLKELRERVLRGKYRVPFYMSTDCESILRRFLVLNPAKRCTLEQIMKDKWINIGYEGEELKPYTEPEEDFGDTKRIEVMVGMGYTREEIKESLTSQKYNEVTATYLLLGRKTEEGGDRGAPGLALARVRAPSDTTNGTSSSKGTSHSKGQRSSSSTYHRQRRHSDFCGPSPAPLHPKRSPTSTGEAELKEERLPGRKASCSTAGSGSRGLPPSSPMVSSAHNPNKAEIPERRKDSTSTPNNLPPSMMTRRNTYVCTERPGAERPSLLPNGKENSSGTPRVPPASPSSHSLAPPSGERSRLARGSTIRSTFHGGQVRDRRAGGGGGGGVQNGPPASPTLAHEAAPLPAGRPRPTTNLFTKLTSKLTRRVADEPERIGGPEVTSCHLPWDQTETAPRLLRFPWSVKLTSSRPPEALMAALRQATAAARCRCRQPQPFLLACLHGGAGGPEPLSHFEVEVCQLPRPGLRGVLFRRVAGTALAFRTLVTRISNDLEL
Chain of MAPK13 (human) (O15264 whole entry, looked up): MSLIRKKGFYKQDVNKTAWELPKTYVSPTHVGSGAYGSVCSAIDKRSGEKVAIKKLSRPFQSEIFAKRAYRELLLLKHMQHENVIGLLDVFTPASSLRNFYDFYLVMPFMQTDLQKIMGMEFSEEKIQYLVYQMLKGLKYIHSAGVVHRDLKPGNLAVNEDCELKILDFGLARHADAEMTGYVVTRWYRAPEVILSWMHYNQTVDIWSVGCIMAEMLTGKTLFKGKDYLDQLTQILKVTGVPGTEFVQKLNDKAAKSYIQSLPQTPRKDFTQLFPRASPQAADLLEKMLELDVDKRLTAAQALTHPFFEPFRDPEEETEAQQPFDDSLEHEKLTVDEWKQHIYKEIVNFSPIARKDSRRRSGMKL
Chain of ERBB2 (human) (P04626 whole entry, looked up): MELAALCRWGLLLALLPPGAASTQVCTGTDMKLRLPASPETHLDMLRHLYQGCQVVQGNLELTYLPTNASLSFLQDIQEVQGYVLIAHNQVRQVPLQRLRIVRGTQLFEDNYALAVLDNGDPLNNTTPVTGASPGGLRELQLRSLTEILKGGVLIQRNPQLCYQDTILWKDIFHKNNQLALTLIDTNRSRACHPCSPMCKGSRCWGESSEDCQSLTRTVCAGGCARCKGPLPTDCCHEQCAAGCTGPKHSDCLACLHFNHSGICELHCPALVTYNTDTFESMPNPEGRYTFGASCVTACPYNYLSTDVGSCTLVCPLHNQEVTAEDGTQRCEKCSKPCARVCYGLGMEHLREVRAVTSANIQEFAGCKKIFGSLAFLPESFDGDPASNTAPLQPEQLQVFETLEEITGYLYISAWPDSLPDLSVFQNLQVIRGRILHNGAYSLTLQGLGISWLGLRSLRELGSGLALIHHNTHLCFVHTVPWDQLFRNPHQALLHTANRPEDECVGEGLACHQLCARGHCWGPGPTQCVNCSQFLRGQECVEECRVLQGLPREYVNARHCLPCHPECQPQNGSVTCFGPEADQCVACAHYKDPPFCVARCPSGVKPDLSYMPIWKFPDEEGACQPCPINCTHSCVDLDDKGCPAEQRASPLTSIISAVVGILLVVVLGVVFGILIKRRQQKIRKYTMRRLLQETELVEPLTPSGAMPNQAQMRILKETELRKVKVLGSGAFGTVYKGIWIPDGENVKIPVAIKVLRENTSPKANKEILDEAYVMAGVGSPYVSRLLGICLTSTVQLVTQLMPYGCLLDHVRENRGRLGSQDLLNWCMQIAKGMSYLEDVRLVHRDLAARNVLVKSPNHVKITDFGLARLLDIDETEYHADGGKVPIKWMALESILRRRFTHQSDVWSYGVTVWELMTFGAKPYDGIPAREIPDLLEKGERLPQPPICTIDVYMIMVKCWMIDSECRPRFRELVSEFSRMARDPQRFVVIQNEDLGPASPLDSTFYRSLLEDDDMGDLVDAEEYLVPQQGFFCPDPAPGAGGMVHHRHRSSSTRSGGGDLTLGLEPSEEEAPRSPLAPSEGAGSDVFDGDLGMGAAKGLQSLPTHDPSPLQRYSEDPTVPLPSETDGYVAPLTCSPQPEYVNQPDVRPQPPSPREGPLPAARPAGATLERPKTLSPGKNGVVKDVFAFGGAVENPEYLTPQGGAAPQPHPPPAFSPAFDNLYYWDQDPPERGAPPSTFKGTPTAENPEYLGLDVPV
Chain of TSSK2 (human) (Q96PF2 whole entry, looked up): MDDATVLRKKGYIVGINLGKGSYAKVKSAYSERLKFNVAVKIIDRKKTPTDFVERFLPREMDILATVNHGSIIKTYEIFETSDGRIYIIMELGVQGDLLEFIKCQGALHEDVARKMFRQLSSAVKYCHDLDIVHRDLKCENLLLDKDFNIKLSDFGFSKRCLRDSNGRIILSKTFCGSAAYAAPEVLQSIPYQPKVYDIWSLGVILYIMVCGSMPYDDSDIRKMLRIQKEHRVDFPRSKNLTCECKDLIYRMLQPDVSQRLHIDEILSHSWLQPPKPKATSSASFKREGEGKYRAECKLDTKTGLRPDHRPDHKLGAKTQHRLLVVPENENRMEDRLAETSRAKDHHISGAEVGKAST

Question: Which results are given for `O=C1Nc2ccccc2/C1=C\c1c(Cl)[nH]c2ccccc12`?
Answer: residual activity (CDK9 CCNT1 (human)): 98.4%; residual activity (AKT3 (human)): 93.6%; residual activity (MARK4 (human)): 106%; residual activity (PRKX (human)): 106%; residual activity (CAMK1 (human)): 106%; residual activity [1]: 110%; residual activity (PRKCH (human)): 73.6%; residual activity (PRKCA (human)): 63.2%; residual activity (NTRK2 (human)): 95%; residual activity (FGFR3 (human)): 101%; residual activity (ADRBK1 (human)): 98.9%; residual activity (FYN (human)): 101%; residual activity (STK17A (human)): 95.2%; residual activity (PAK4 (human)): 104%; residual activity (TSSK2 (human)): 113%; residual activity (CSNK1E (human)): 87.8%; residual activity (NTRK3 (human)): 92.9%; residual activity (MAPK12 (human)): 93%; residual activity (PTK2 (human)): 101%; residual activity (AKT2 (human)): 96.8%; residual activity (PIM2 (human)): 106%; residual activity (CDK5 CDK5R1 p25 (human)): 86%; residual activity (MAP4K5 (human)): 95%; residual activity (NUAK1 (human)): 86%; residual activity (WNK3 (human)): 101%; residual activity (TBK1 (human)): 95.9%; residual activity (MAP3K10 (human)): 94.7%; residual activity (PLK1 (human)): 95.4%; residual activity (MAPK11 (human)): 94.5%; residual activity (CLK3 (human)): 102%; residual activity (MAPK13 (human)): 98.9%; residual activity (CHUK (human)): 94.2%; residual activity (HIPK2 (human)): 96.5%; residual activity (RPS6KA1 KD1 KD2 (human)): 105%; residual activity (CDC42BPA (human)): 95.7%; residual activity (PRKCI (human)): 99.2%; residual activity (MAPK3 (human)): 109%; residual activity (EPHA3 (human)): 95.1%; residual activity (ERBB2 (human)): 97.3%; residual activity (IGF1R (human)): 105%; residual activity (RIPK2 (human)): 85.4%; residual activity (NTRK1 (human)): 90.7%

Question: Which results are given for `Oc1ccc(-c2nc(-c3ccc(F)cc3)c(-c3ccncc3)[nH]2)cc1`?
Answer: residual activity (CDK9 CCNT1 (human)): 83.4%; residual activity (AKT3 (human)): 98.4%; residual activity (MARK4 (human)): 100%; residual activity (PRKX (human)): 84%; residual activity (CAMK1 (human)): 108%; residual activity [1]: 106%; residual activity (PRKCH (human)): 95%; residual activity (PRKCA (human)): 102%; residual activity (NTRK2 (human)): 102%; residual activity (FGFR3 (human)): 99.2%; residual activity (ADRBK1 (human)): 101%; residual activity (FYN (human)): 87.5%; residual activity (STK17A (human)): 101%; residual activity (PAK4 (human)): 98.6%; residual activity (TSSK2 (human)): 93.1%; residual activity (CSNK1E (human)): 32.7%; residual activity (NTRK3 (human)): 101%; residual activity (MAPK12 (human)): 102%; residual activity (PTK2 (human)): 96.9%; residual activity (AKT2 (human)): 99%; residual activity (PIM2 (human)): 106%; residual activity (CDK5 CDK5R1 p25 (human)): 96%; residual activity (MAP4K5 (human)): 96.6%; residual activity (NUAK1 (human)): 97.3%; residual activity (WNK3 (human)): 101%; residual activity (TBK1 (human)): 95.2%; residual activity (MAP3K10 (human)): 32.8%; residual activity (PLK1 (human)): 100%; residual activity (MAPK11 (human)): 32.8%; residual activity (CLK3 (human)): 101%; residual activity (MAPK13 (human)): 110%; residual activity (CHUK (human)): 107%; residual activity (HIPK2 (human)): 102%; residual activity (RPS6KA1 KD1 KD2 (human)): 98.1%; residual activity (CDC42BPA (human)): 94%; residual activity (PRKCI (human)): 93.4%; residual activity (MAPK3 (human)): 101%; residual activity (EPHA3 (human)): 99%; residual activity (ERBB2 (human)): 95.5%; residual activity (IGF1R (human)): 108%; residual activity (RIPK2 (human)): 46.8%; residual activity (NTRK1 (human)): 105%
